Among the data in ChEMBL document CHEMBL1157360, “Characterization of an integron carrying blaIMP-1 and a new aminoglycoside resistance gene, aac(6')-31, and its dissemination among genetically unrelated clinical isolates in a Brazilian hospital” (2007) are MIC values, retold here.

Common to all, as to format: functional
One assay concerns Pseudomonas putida. Nature of the assay: Antimicrobial activity against Pseudomonas putida 12346 isolate harboring bla IMP-1 carrying integron In86 containing aminoglycoside resistance gene aac(6')-3.
In assay [1] the test system is Acinetobacter sp. Nature of the assay: Antimicrobial activity against Acinetobacter sp. 5248 isolate harboring bla IMP-1 carrying integron In86 containing aminoglycoside resistance gene aac(6')-3.
The subject of assay [2] is Acinetobacter sp. Nature of the assay: Antimicrobial activity against Acinetobacter sp. 5227 isolate harboring bla IMP-1 carrying integron In86 containing aminoglycoside resistance gene aac(6')-3.
The subject of assay [3] is Acinetobacter baumannii. Nature of the assay: Antimicrobial activity against Acinetobacter baumannii 501 isolate harboring bla IMP-1 carrying integron In86 containing aminoglycoside resistance gene aac(6')-3.
Assay [4] concerns Acinetobacter baumannii. Kind of assay: Antimicrobial activity against Acinetobacter baumannii 695 isolate harboring bla IMP-1 carrying integron In86 containing aminoglycoside resistance gene aac(6')-3.
In assay [5] the test system is Acinetobacter baumannii. Kind of assay: Antimicrobial activity against Acinetobacter baumannii 9043 isolate harboring bla IMP-1 carrying integron In86 containing aminoglycoside resistance gene aac(6')-3.
Assay [6] relates to Acinetobacter baumannii. Kind of assay: Antimicrobial activity against Acinetobacter baumannii 696 isolate harboring bla IMP-1 carrying integron In86 containing aminoglycoside resistance gene aac(6')-3.
The test system of assay [7] is Acinetobacter baumannii. Kind of assay: Antimicrobial activity against Acinetobacter baumannii 694 isolate harboring bla IMP-1 carrying integron In86 containing aminoglycoside resistance gene aac(6')-3.
Assay [8] deals with Escherichia coli. Nature of the assay: Antimicrobial activity against Escherichia coli DH5alpha harboring recombinant pIMPAR31.
Assay [9] has as its system Escherichia coli. Kind of assay: Antimicrobial activity against Escherichia coli DH5alpha.

In general, MIC refers to the lowest concentration found to suppress growth.

Converted amounts (≈) assume the structure as drawn.

Regarding `CO/N=C(\C(=O)N[C@@H]1C(=O)N2C(C(=O)[O-])=C(C[N+]3(C)CCCC3)CS[C@H]12)c1csc(N)n1`, the MIC against Pseudomonas putida, with Acinetobacter sp. [1], with Acinetobacter sp. [2], with Acinetobacter baumannii [3], in the assay with Acinetobacter baumannii [4] and against Acinetobacter baumannii [5] was > 16 µg/mL in each case. Further, the MIC against Acinetobacter baumannii [6] and in the assay on Acinetobacter baumannii [7] was > 16 µg/mL throughout.
Regarding `NCC[C@H](O)C(=O)N[C@@H]1C[C@H](N)[C@@H](O[C@H]2O[C@H](CN)[C@@H](O)[C@H](O)[C@H]2O)[C@H](O)[C@H]1O[C@H]1O[C@H](CO)[C@@H](O)[C@H](N)[C@H]1O` [AMIKACIN], the MIC was 8 µg/mL with Escherichia coli [8]; > 32 µg/mL in the assay on Pseudomonas putida; 32 µg/mL (≈ 54.6 µM) with Acinetobacter sp. [1]; > 32 µg/mL with Acinetobacter sp. [2]; 32 µg/mL (≈ 54.6 µM) against Acinetobacter baumannii [3]; 32 µg/mL (≈ 54.6 µM) in the assay with Acinetobacter baumannii [4]. Besides, the minimal inhibitory concentration (MIC) against Escherichia coli [9] was 0.5 µg/mL (≈ 0.854 µM); with Acinetobacter baumannii [5], > 32 µg/mL; in the assay with Acinetobacter baumannii [6], > 32 µg/mL; in the assay on Acinetobacter baumannii [7], > 32 µg/mL.
In the case of `CC1(C)S[C@@H]2[C@H](NC(=O)[C@H](N)c3ccccc3)C(=O)N2[C@H]1C(=O)O` [AMPICILLIN], the MIC against Pseudomonas putida, in the assay with Acinetobacter sp. [1], against Acinetobacter sp. [2], against Acinetobacter baumannii [3], against Acinetobacter baumannii [4] and against Acinetobacter baumannii [5] was > 16 µg/mL throughout. The MIC with Acinetobacter baumannii [6] and in the assay on Acinetobacter baumannii [7] was > 16 µg/mL throughout.
`C[C@H]1[C@H](NC(=O)/C(=N\OC(C)(C)C(=O)O)c2csc(N)n2)C(=O)N1S(=O)(=O)O` [AZTREONAM]: the MIC in the assay with Pseudomonas putida, against Acinetobacter sp. [1], against Acinetobacter sp. [2], against Acinetobacter baumannii [3], in the assay on Acinetobacter baumannii [4] and in the assay on Acinetobacter baumannii [5] was > 16 µg/mL throughout. For the same compound, the MIC in the assay with Acinetobacter baumannii [6] and against Acinetobacter baumannii [7] was > 16 µg/mL in each case.
On to `CC(C)(O/N=C(\C(=O)N[C@@H]1C(=O)N2C(C(=O)[O-])=C(C[n+]3ccccc3)CS[C@H]12)c1csc(N)n1)C(=O)O` [CEFTAZIDIME], for which the minimum inhibitory concentration (MIC) with Pseudomonas putida, in the assay with Acinetobacter sp. [1], against Acinetobacter sp. [2], in the assay with Acinetobacter baumannii [3], against Acinetobacter baumannii [4] and against Acinetobacter baumannii [5] was > 16 µg/mL in each case. Moreover, the MIC against Acinetobacter baumannii [6] and with Acinetobacter baumannii [7] was > 16 µg/mL in each case.
Consider `O=C(O)c1cn(C2CC2)c2cc(N3CCNCC3)c(F)cc2c1=O` [CIPROFLOXACIN], for which the MIC was > 2 µg/mL in the assay on Pseudomonas putida; > 4 µg/mL against Acinetobacter sp. [1]; 2 µg/mL (≈ 6.04 µM) in the assay with Acinetobacter sp. [2]; 0.12 µg/mL (≈ 0.362 µM) against Acinetobacter baumannii [3]; > 4 µg/mL with Acinetobacter baumannii [4]; > 2 µg/mL in the assay on Acinetobacter baumannii [5]. Further, the MIC in the assay on Acinetobacter baumannii [6] turned out to be 0.5 µg/mL (≈ 1.51 µM); in the assay with Acinetobacter baumannii [7] it was 1 µg/mL (≈ 3.02 µM).
As for `COc1c(N2CCNC(C)C2)c(F)cc2c(=O)c(C(=O)O)cn(C3CC3)c12` (stereo not drawn) [GATIFLOXACIN], the MIC with Pseudomonas putida was > 4 µg/mL; against Acinetobacter sp. [1], 4 µg/mL (≈ 10.7 µM); in the assay on Acinetobacter sp. [2] it was 1 µg/mL (≈ 2.66 µM); in the assay with Acinetobacter baumannii [3] it was 0.12 µg/mL (≈ 0.32 µM); against Acinetobacter baumannii [4], 4 µg/mL (≈ 10.7 µM); in the assay on Acinetobacter baumannii [5] it was > 4 µg/mL. In addition, the MIC with Acinetobacter baumannii [6] was found to be 0.06 µg/mL (≈ 0.16 µM); against Acinetobacter baumannii [7], 0.25 µg/mL (≈ 0.666 µM).
Turning to `C[C@@H](O)[C@H]1C(=O)N2C(C(=O)O)=C(SCCNC=N)C[C@H]12` [IMIPENEM ANHYDROUS], the MIC with Pseudomonas putida, with Acinetobacter sp. [1], against Acinetobacter sp. [2], in the assay on Acinetobacter baumannii [3], in the assay on Acinetobacter baumannii [4] and in the assay with Acinetobacter baumannii [5] was > 8 µg/mL throughout. In addition, the MIC against Acinetobacter baumannii [6] and against Acinetobacter baumannii [7] was > 8 µg/mL throughout.
For `CN[C@@H]1[C@@H](O)[C@@H](O[C@@H]2[C@@H](O)[C@H](O[C@H]3O[C@H](CN)[C@@H](O)[C@H](O)[C@H]3O)[C@@H](N)C[C@H]2NC(=O)[C@@H](O)CN)OC[C@]1(C)O` [ISEPAMICIN], the MIC is 4 µg/mL in the assay on Escherichia coli [8] and 0.12 µg/mL (≈ 0.211 µM) in the assay on Escherichia coli [9].
In turn, `NC[C@H]1O[C@H](O[C@H]2[C@H](O)[C@@H](O[C@H]3O[C@H](CO)[C@@H](O)[C@H](N)[C@H]3O)[C@H](N)C[C@@H]2N)[C@H](O)[C@@H](O)[C@@H]1O` [KANAMYCIN] yielded a minimal inhibitory concentration (MIC) in the assay on Escherichia coli [9] of 0.5 µg/mL (≈ 1.03 µM).
Consider `C[C@H]1COc2c(N3CCN(C)CC3)c(F)cc3c(=O)c(C(=O)O)cn1c23.C[C@H]1COc2c(N3CCN(C)CC3)c(F)cc3c(=O)c(C(=O)O)cn1c23.O` [LEVOFLOXACIN], for which the MIC against Pseudomonas putida is > 4 µg/mL; in the assay with Acinetobacter sp. [1], 4 µg/mL; with Acinetobacter sp. [2] it was 2 µg/mL; with Acinetobacter baumannii [3], 0.25 µg/mL; against Acinetobacter baumannii [4], > 4 µg/mL; in the assay on Acinetobacter baumannii [5], > 4 µg/mL. Besides, the MIC against Acinetobacter baumannii [6] and against Acinetobacter baumannii [7] was 0.25 µg/mL throughout.
Regarding `C[C@@H](O)[C@H]1C(=O)N2C(C(=O)O)=C(S[C@@H]3CN[C@H](C(=O)N(C)C)C3)[C@H](C)[C@H]12` [MEROPENEM], the MIC against Pseudomonas putida, against Acinetobacter sp. [1], against Acinetobacter sp. [2], against Acinetobacter baumannii [3], in the assay on Acinetobacter baumannii [4] and against Acinetobacter baumannii [5] was > 8 µg/mL throughout. The MIC against Acinetobacter baumannii [6] and with Acinetobacter baumannii [7] was > 8 µg/mL throughout.
Take `CCN[C@@H]1C[C@H](N)[C@@H](O[C@H]2OC(CN)=CC[C@H]2N)[C@H](O)[C@H]1O[C@H]1OC[C@](C)(O)[C@H](NC)[C@H]1O` [NETILMICIN]: the MIC was 4 µg/mL with Escherichia coli [8]; > 32 µg/mL in the assay on Pseudomonas putida; 16 µg/mL (≈ 33.6 µM) with Acinetobacter sp. [1]; > 32 µg/mL against Acinetobacter sp. [2]; > 32 µg/mL in the assay on Acinetobacter baumannii [3]; 8 µg/mL (≈ 16.8 µM) with Acinetobacter baumannii [4]. Besides, the MIC in the assay on Escherichia coli [9] is 0.5 µg/mL (≈ 1.05 µM); against Acinetobacter baumannii [5], > 32 µg/mL; against Acinetobacter baumannii [6], 32 µg/mL (≈ 67.3 µM); against Acinetobacter baumannii [7] it was 32 µg/mL (≈ 67.3 µM).
`CCN1CCN(C(=O)N[C@@H](C(=O)N[C@@H]2C(=O)N3[C@@H]2SC(C)(C)[C@@H]3C(=O)O)c2ccccc2)C(=O)C1=O` [PIPERACILLIN]: the MIC in the assay on Pseudomonas putida was 64 µg/mL (≈ 124 µM); against Acinetobacter sp. [1], > 128 µg/mL; with Acinetobacter sp. [2], > 128 µg/mL; with Acinetobacter baumannii [3] it was 32 µg/mL (≈ 61.8 µM); in the assay with Acinetobacter baumannii [4] it was 128 µg/mL (≈ 247 µM); with Acinetobacter baumannii [5] it was > 128 µg/mL. Besides, the MIC in the assay on Acinetobacter baumannii [6] and with Acinetobacter baumannii [7] was > 128 µg/mL in each case.
Consider `CN[C@@H]1[C@@H](O)[C@@H](O[C@@H]2[C@@H](O)[C@H](O[C@H]3OC(CN)=CC[C@H]3N)[C@@H](N)C[C@H]2N)OC[C@]1(C)O` [SISOMICIN], for which the results for the MIC in the assay on Escherichia coli [8] and against Escherichia coli [9] were 8 µg/mL and ≤ 0.25 µg/mL, respectively.
With `CC1(C)S[C@@H]2[C@H](NC(=O)[C@H](C(=O)O)c3ccsc3)C(=O)N2[C@H]1C(=O)O` [TICARCILLIN], the MIC with Pseudomonas putida, against Acinetobacter sp. [1], in the assay on Acinetobacter sp. [2], with Acinetobacter baumannii [3], in the assay with Acinetobacter baumannii [4] and in the assay with Acinetobacter baumannii [5] was > 128 µg/mL each time. Further, the MIC in the assay with Acinetobacter baumannii [6] and against Acinetobacter baumannii [7] was > 128 µg/mL each time.
Regarding `NC[C@H]1O[C@H](O[C@H]2[C@H](O)[C@@H](O[C@H]3O[C@H](CO)[C@@H](O)[C@H](N)[C@H]3O)[C@H](N)C[C@@H]2N)[C@H](N)C[C@@H]1O` [TOBRAMYCIN], the MIC in the assay with Escherichia coli [8] was 4 µg/mL; against Pseudomonas putida, > 16 µg/mL; against Acinetobacter sp. [1], 8 µg/mL (≈ 17.1 µM); in the assay with Acinetobacter sp. [2] it was 16 µg/mL (≈ 34.2 µM); against Acinetobacter baumannii [3], > 16 µg/mL; against Acinetobacter baumannii [4], > 16 µg/mL. Further, the MIC worked out at 0.25 µg/mL (≈ 0.535 µM) against Escherichia coli [9], 16 µg/mL (≈ 34.2 µM) in the assay on Acinetobacter baumannii [5], 16 µg/mL (≈ 34.2 µM) against Acinetobacter baumannii [6] and 16 µg/mL (≈ 34.2 µM) against Acinetobacter baumannii [7].
